Results as given in US10562869B2, “Oxadiazole compounds” (REMYND NV, priority 2014, dated 2020).
pEC50: −log10 of the molar value.

The compounds below were run on M17_3SYN cells (assay: Paraquat-induced cytotoxicity (LDH) in α-synuclein over-expressing M17_3SYN neuroblastoma cells). Conditions: Homo sapiens, Neuroblastoma cell, 48 h, toxicity inhibition (LDH) in M17_3SYN cells challenged with 6 mM paraquat, 2 days; read-out: SYN EC50.
Type: cell-based, human
Text: A α-synuclein expression plasmid was constructed by subcloning the NcoI/XhoI fragment from 212T-SYN(WT) (Griffioen et al., Biochem Biophys Acta (2006) 1762(3):312-318) containing the cDNA of human wild type α-synuclein correspondingly into a standard mammalian expression vector pcDNA3.1 resulting in plasmid pcDNA3.1-SYNwt. Plasmids pcDNA3.1 and pcDNA3.1-SYNwt were transfected into human neuroblastoma cells (BE-M17; ATCC No. CRL-2267™) using lipofectamine reagent and subsequently, independent clonal cell lines with the plasmids stably integrated into the genome were selected by antibiotic resistance selection (Geneticin (G418)), resulting in cell lines M17.pcDNA3 and M17_3SYN. Overexpression of α-synuclein in the M17_3SYN cell line was confirmed by Western blot analysis.
Due to the high levels of α-synuclein, M17_3SYN cells were sensitive to paraquat, a well-known risk factor Parkinson's disease and of synuclein-dependent neuronal degeneration. Cytotoxicity of cells was measured by quantification of lactate dehydrogenase (LDH) levels. In dead cells, LDH leaked out of the cells into the medium due to a loss of plasma-membrane integrity.
[…], primary pre-cultures of M17.pcDNA3 (as possible control) and M17_3SYN cells were prepared, starting from a stock culture, at a density of 20.000-40.000 cells/cm2 in culture medium (Opti-MEM® Reduced Serum Medium with Phenol Red (Invitrogen, Cat. 31985-047) supplemented with 10% FCS, 1 mM sodium pyruvate, 1×NEAA, 500 μg/ml G418 and 0.5×antibiotic/antimycotic (ABAM)). 3 days later these primary pre-cultures were used as a starting point to make secondary pre-cultures at a density of 50.000-100.000 cells/cm^2. At the day of the experiment these secondary precultures were diluted to ˜0.5·10^6 cells/ml in detection medium (Opti-MEM® Reduced-Serum Medium without Phenol Red (Invitrogen, Cat. 11085-021) supplemented with 10% FCS, 1 mM sodium pyruvate, 1×NEAA, 500 μg/ml G418 and 0.5×ABAM) and 60 μL of this suspension was dispensed per well into a 96-well microtiter plate. After 3 hours of incubation at 37° C./5% CO2 an equal volume of detection medium containing a final concentration of 6 mM Paraquat was added and subsequently incubated for 2 days at 37° C./5% CO2. Then LDH activity was determined using the Promega Cytotox 96 Non-Radioactive cytotoxicity assay (Promega, Cat. G1780), according to the manufacturer's instructions. Cytotoxicity was defined as the ratio of LDH relative to the total LDH in the cells and supernatant.
The assay described above using the M17_3SYN cell line allowed screening compounds for their ability to decrease cytotoxicity in PQ-challenged cells. Compounds of the invention were tested for their ability to decrease toxicity at different concentrations, ranging from low non-effective concentrations to high effective concentrations. Afterwards, a dose-dependent inhibition curve was used to calculate the EC50. A compound was considered to be active in this test when it inhibited toxicity by more than 20% relative to untreated M17_3SYN cells at a concentration of 10 μM or lower.

SMILES	pEC50
O=S(=O)(c1ccc(F)cc1)N1CCN(c2nc(Cc3cccc(F)c3)no2)CC1 [Cmpd085, 1-(4-Fluoro-benzenesulfonyl)-4-[3-(3-fluoro-benzyl)-[1,2,4]oxadiazol-5-yl]-piperazine]	6.60
COc1ccc(S(=O)(=O)N2CCN(c3nc(Cc4ccc(F)c(F)c4)no3)CC2)cc1 [Cmpd099, 1-[3-(3,4-Difluoro-benzyl)-[1,2,4]oxadiazol-5-yl]-4-(4-methoxy-benzenesulfonyl)-piperazine]	7.80
O=S(=O)(c1ccc(OC(F)F)cc1)N1CCN(c2nc(C(F)(F)c3ccc(Cl)cc3)no2)CC1 [Cmpd144, 1-{3-[(4-Chloro-phenyl)-difluoro-methyl]-[1,2,4]oxadiazol-5-yl}-4-(4-difluoromethoxy-benzenesulfonyl)-piperazine]	6.84
O=S(=O)(c1ccc(OC(F)F)cc1)N1CCN(c2nc(C3(c4ccc(Cl)cc4)CC3)no2)CC1 [Cmpd140, 1-{3-[1-(4-Chloro-phenyl)-cyclopropyl]-[1,2,4]oxadiazol-5-yl}-4-(4-difluoromethoxy-benzenesulfonyl)-piperazine]	7.36
CSc1ccc(S(=O)(=O)N2CCN(c3nc(CCC(F)(F)F)no3)CC2)cc1 [Cmpd172, 5-(4-((4-(Methylthio)phenyl)sulfonyl)piperazin-1-yl)-3-(3,3,3-trifluoropropyl)-1,2,4-oxadiazole]	6.78
O=S(=O)(c1ccc2c(c1)CCO2)N1CCN(c2nc(Cc3cccc(F)c3)no2)CC1 [Cmpd095, 1-(2,3-Dihydro-benzofuran-5-sulfonyl)-4-[3-(3-fluoro-benzyl)-[1,2,4]oxadiazol-5-yl]-piperazine]	7.05
CC(=O)Nc1ccc(S(=O)(=O)N2CCN(c3nc(Cc4cccc(F)c4)no3)CC2)cc1 [Cmpd086, N-(4-{4-[3-(3-Fluoro-benzyl)-[1,2,4]oxadiazol-5-yl]-piperazine-1-sulfonyl}-phenyl)-acetamide]	6.28
CCOc1ccc(S(=O)(=O)N2CCN(c3nc(C(C)(C)c4ccc(F)cc4)no3)CC2)cc1 [Cmpd115, 1-(4-Ethoxy-benzenesulfonyl)-4-{3-[1-(4-fluoro-phenyl)-1-methyl-ethyl]-[1,2,4]oxadiazol-5-yl}-piperazine]	7.27
O=S(=O)(c1ccc(OC(F)F)cc1)N1CCN(c2nc(Cc3cccc(Cl)c3)no2)CC1 [Cmpd074, 1-[3-(3-Chloro-benzyl)-[1,2,4]oxadiazol-5-yl]-4-(4-difluoromethoxy-benzenesulfonyl)-piperazine]	8.00
CSc1ccc(S(=O)(=O)N2CCN(c3nc(C(C)(C)c4cccc(Cl)c4)no3)CC2)cc1 [Cmpd155, 1-{3-[1-(3-Chloro-phenyl)-1-methyl-ethyl]-[1,2,4]oxadiazol-5-yl}-4-(4-methylsulfanyl-benzenesulfonyl)-piperazine]	8.70
CCC(c1ccccc1)c1noc(N2CCN(S(=O)(=O)c3ccc(OC)cc3)CC2)n1 (centres unmarked) [Cmpd044, 5-(4-((4-Methoxyphenyl)sulfonyl)piperazin-1-yl)-3-(1-phenylpropyl)-1,2,4-oxadiazole]	7.82

The compounds below were run on M17_3TAU(P301L) cells (assay: Retinoic acid-induced cytotoxicity (LDH) in TAU-P301L expressing M17_3TAU(P301L) neuroblastoma cells). Conditions: Homo sapiens, Neuroblastoma cell, 168 h; toxicity inhibition (LDH) in M17_3TAU(P301L) cells challenged with retinoic acid, 7 days.
Type: cell-based
Text: A TAU expression plasmid was constructed by sub-cloning the cDNA encoding for human TAU-P301L protein, wherein proline at position 301 was substituted by a leucine residue, into mammalian expression vector pcDNA3.1 resulting in the plasmid pcDNA3.1-TAUP301L. Plasmid pcDNA3.1-TAU P301L was transfected into human neuroblastoma cells (BE-M17; ATCC No. CRL-2267™) using lipofectamine reagent and subsequently, independent clonal cell lines with the plasmids stably integrated into the genome were selected by antibiotic resistance selection (Geneticin (G418)), resulting in cell line M17_3TAUP301L. Expression of the TAUP301L gene in the M17_3TAUP301L cells was confirmed by Western blot analysis.
M17_3TAU(P301L) cells were treated chronically with retinoic acid (RA) in low serum conditions to induce Alzheimer's disease-like intracellular signaling deregulation leading to increased TAU levels and subsequent cell death. Cytotoxicity of cells was measured by quantification of lactate dehydrogenase (LDH) levels. In dead cells LDH leaked out of the cells into the medium due to a loss of plasma-membrane integrity.
3 days preceding the experiment, a pre-culture of M17_3TAU(P301L) cells was prepared, starting from a stock culture, at a density of 50.000-100.000 cells/cm^2 in culture medium (Optimem Reduced Serum with phenol red (Invitrogen, Cat. 31985-047)) supplemented with 10% fetal calf serum (FCS), 1 mM sodium pyruvate, 1×non-essential amino acids (NEAA), 500 μg/ml G418 and 0.5×(ABAM). At the day of the experiment these precultures were diluted to ˜0.1·10^6 cells/ml in detection medium (Optimem Reduced Serum without phenol red (Gibco, Cat.11058-021) supplemented with 1% fetal calf serum (FCS), 1 mM sodium pyruvate, 1×non-essential amino acids (NEAA), 500 μg/ml G418 and 0.5×ABAM) and 60 μL of this suspension was dispensed per well into a 96-well microtiter plate. After 3 hours of incubation at 37° C./5% CO2 an equal volume of detection medium (without FCS) containing 3.75 μM RA was added and subsequently incubated for 7 days at 37° C./5% CO2. Then LDH activity was determined using the Promega Cytotox 96 Non-Radioactive cytotoxicity assay (Cat. G1780), according to the manufacturer's instructions. Cytotoxicity was defined as the ratio of LDH relative the total LDH in the cells and supernatant.
The assay described above using the M17_3TAU(P301L) cell line allowed to screen compounds for their ability to decrease cytotoxicity in RA-challenged cells. Compounds of the invention were tested for their ability to decrease toxicity at different concentrations, ranging from low non-effective concentrations to high potent concentrations. Afterwards, the dose-dependent inhibition curve was used to calculate their EC50. A compound was considered to be active in this test when it inhibited toxicity by more than 20% relative to untreated M17_3TAU(P301L) cells at a concentration of 10 μM or lower.

SMILES	pEC50
Cc1ccc(-c2noc(N3CCN(Cc4ccc5c(c4)OCO5)CC3)n2)cc1 [Cmpd007, 5-(4-(Benzo[d][1,3]dioxol-5-ylmethyl)piperazin-1-yl)-3-(p-tolyl)-1,2,4-oxadiazole]	6.45
Clc1ccc(CCN2CCN(c3nc(Cc4ccc(Cl)cc4)no3)CC2)cc1 [Cmpd059, 1-[3-(4-Chloro-benzyl)-[1,2,4]oxadiazol-5-yl]-4-[2-(4-chloro-phenyl)-ethyl]-piperazine]	6.66
CC(C)CCN1CCN(c2nc(-c3cccc(F)c3)no2)CC1 [Cmpd034, 3-(3-Fluorophenyl)-5-(4-isopentylpiperazin-1-yl)-1,2,4-oxadiazole]	8.70
COc1cccc(CCN2CCN(c3nc(C4(c5ccc(F)cc5)CC4)no3)CC2)c1 [Cmpd109, 3-(1-(4-Fluorophenyl)cyclopropyl)-5-(4-(3-methoxyphenethyl)piperazin-1-yl)-1,2,4-oxadiazole]	6.31
COc1cccc(CCN2CCN(c3nc(Cc4cccc(Cl)c4)no3)CC2)c1 [Cmpd076, 1-[3-(3-Chloro-benzyl)-[1,2,4]oxadiazol-5-yl]-4-[2-(3-methoxy-phenyl)-ethyl]-piperazine]	8.22
Cc1ccc(-c2noc(N3CCN(Cc4ccc(Cl)cc4)CC3)n2)cc1 [Cmpd008, 5-(4-(4-Chlorobenzyl)piperazin-1-yl)-3-(p-tolyl)-1,2,4-oxadiazole]	6.74
Clc1ccccc1CN1CCN(c2nc(C3C[C@@H]4CC[C@H]3C4)no2)CC1 (stereo partly drawn) [Cmpd184, 3-((1S,4R)-bicyclo[2.2.1]heptan-2-yl)-5-(4-(2-chlorobenzyl)piperazin-1-yl)-1,2,4-oxadiazole]	6.87
CC(C)CCN1CCN(c2nc(C3C[C@@H]4CC[C@H]3C4)no2)CC1 (stereo partly drawn) [Cmpd189, 3-((1S,4R)-bicyclo[2.2.1]heptan-2-yl)-5-(4-isopentylpiperazin-1-yl)-1,2,4-oxadiazole]	8.52
CC(C)CCN1CCN(c2nc(C3(c4ccccc4)CC3)no2)CC1 [Cmpd133, 5-(4-Isopentylpiperazin-1-yl)-3-(1-phenylcyclopropyl)-1,2,4-oxadiazole]	7.52
Cc1ccccc1CN1CCN(c2nc(Cc3ccccc3)no2)CC1 [Cmpd041, 1-(3-Benzyl-[1,2,4]oxadiazol-5-yl)-4-(2-methylbenzyl)-piperazine]	7.26
COc1cccc(CCN2CCN(c3nc(Cc4ccc(F)c(F)c4)no3)CC2)c1 [Cmpd098, 1-[3-(3,4-Difluoro-benzyl)-[1,2,4]oxadiazol-5-yl]-4-[2-(3-methoxy-phenyl)-ethyl]-piperazine]	8.52
COc1cc(CCN2CCN(c3nc(-c4ccc(Cl)cc4)no3)CC2)ccn1 [Cmpd023, 3-(4-Chlorophenyl)-5-(4-(2-(2-methoxypyridin-4-yl)ethyl)piperazin-1-yl)-1,2,4-oxadiazole]	7.74
